{
  "source": "patent US11865103B2",
  "about": "“Methods of treating disorders associated with glycosylation defective proteins” (CASE WESTERN RESERVE UNIVERSITY, priority 2016, dated 2024)",
  "key": {"[1]": {"test_system": "hair cells of hCLRN1^N48K-YFP; clrn1^KO/KO larvae", "assay": "Extracellular microphonic potentials of lateral line neuromast hair cells", "format": "in vivo, zebrafish", "details": "0.4 uM ART 4 hours/day from 3 dpf to 6 dpf; recorded at 6 dpf; untreated 7.286", "experimental": "Zebrafish larvae at 6 dpf were anesthetized using MS-222 (Sigma-Aldrich) dissolved in a standard bath solution containing 120 mM NaCl, 2 mM KCl, 10 mM HEPES, 2 mM CaCl2, and 0.7 mM NaH2PO4 adjusted to pH 7.2. The larvae were then secured in a recording chamber using dental floss tie downs (Ricci and Fettiplace, 1997). Their blood flow and heart rate were visually observed to assess viability using an upright Olympus BX51WI microscope. Recordings were made with a PC-505B amplifier (Warner Instruments) and a PCI-6221 digitizer (National Instruments). Images were taken with a Grasshopper3 CMOS camera (Point Grey) and processed with software provided by the manufacturer. To record the activity of hair cells from the lateral line neuromasts, the cupula of neuromasts were deflected with a fluid jet placed ˜50 μm from the neuromast (Trapani and Nicolson, 2010) and controlled by an HSPC-1 (ALA Scientific Instruments) that delivered sinusoidal stimuli of 50 Hz. Microphonic potentials were recorded at room temperature (22° C.). […] Microphonic potentials were recorded using a jClamp for Windows (SciSoft, license: Joseph Santos-Sacchi, Yale University, New Haven, CT) in current-clamp mode, amplified by 20 (SIM983; Stanford 37 Research), and low-pass filtered at 200 Hz. […]"}, "[2]": {"test_system": "hCLRN1^N48K-YFP", "assay": "Hair bundle localization of hCLRN1^N48K-YFP (YFP intensity) in neuromast hair cells of live larvae treated with SERCA inhibitors", "format": "in vivo, zebrafish", "set-up": "key: “—” = The YFP intensity in the bundle is similar to untreated control.; “+” = The YFP intensity in the bundle is higher compared to untreated control", "details": "ART 0.25 μM"}},
  "data": [
    {"smiles": "C[C@@H]1CC[C@H]2[C@@H](C)C(=O)O[C@@H]3O[C@@]4(C)CC[C@@H]1[C@]32OO4", "note": "[ART, Artemisinin]", "values": [
      {"measurement": "Extracellular microphonic potentials (Mean±SEM)", "setting": "[1]", "result": 9.529, "unit": "μV"},
      {"measurement": "YFP intensity in the bundle compared to untreated control", "setting": "[2]; exposure 2 h", "result": "—"},
      {"measurement": "YFP intensity in the bundle compared to untreated control", "setting": "[2]; exposure 4 h", "result": "—"},
      {"measurement": "YFP intensity in the bundle compared to untreated control", "setting": "[2]; exposure 8 h", "result": "—"}
    ]}
  ]
}
